Data from patent publication US12599602B2, “Methods for treating cholestasis” (Mirum Pharmaceuticals, Inc., priority 2019, dated 2026).
Where “and” joins values, the source holds several entries; their conditions need not be identical. Equal entries are not always repeated.

What was measured:
[1] = tested on: Participants with Primary Sclerosing Cholangitis (PSC); assay: CAMEO 14-week single-arm open-label phase 2a study of maralixibat in PSC; type: in vivo, human
Experimental: Participants were adults aged 18-80 years with a diagnosis of PSC. PSC diagnosis included a documented history of alkaline phosphatase (ALP) levels greater than 1.5 times above the upper limit of normal, biliary obstruction, and histological findings consistent with PSC diagnosis (if previously biopsied). The study enrolled 27 adults.
Efficacy was assessed by measuring at baseline and throughout the study sBA concentration, serum 7αC4 concentration (a marker of de novo bile acid synthesis), serum aoutotaxin concentration, LDL-C concentration, serum total cholesterol concentration, serum liver enzyme concentrations, and pruritus severity. Pruritus severity was determined by calculating Adult Itch Reported Outcome (ITCHRO) weekly sum scores and average daily scores (mean score over a 7-day period). Participants self-reported the ITCHRO daily on a scale 0-10 (0=no pruritus; 10=most severe pruritus).
Outcomes were assessed in the overall study population and in subgroups of participants (A) with any pruritus at baseline or (B) with an ITCHRO average daily score ≥4 out of 10 at baseline. Efficacy endpoints were based on change from baseline to week 14 or early termination (ET) and were analyzed using paired t-tests or Wilcoxon signed rank tests.

[2] = tested on: Overweight and obese adults; assay: Phase 1 blinded, placebo-controlled, dose-ranging clinical study (NCT02475317), fecal bile acid excretion
Experimental: Participants consumed a low-fiber diet (<10 mg/day) for 2 days before randomization and during the 7-day treatment period. Measurements were taken of fBA, sBA concentration, and serum 7αC4 concentration (which is a biomarker of bile acid synthesis) prior to drug administration and at day 7.

[3] = tested on: Children with Progressive Familial Intrahepatic Cholestasis; assay: INDIGO phase 2 open-label efficacy and safety clinical study of maralixibat in PFIC; type: in vivo, human; conditions: for 7αC4:sBA ratio: high-dose responder
[4] = participants with ITCHRO daily score ≥4 at baseline, one line per Participant A-F
[5] = participants with an ITCHRO daily score ≥4 at baseline

maralixibat
tolerability ([1]; adults with PSC, up to 10 mg/day): well tolerated | participants with worsening of pruritus by >1 point ([1]; baseline to week 14): No participants | 7αC4, mean increase from baseline ([1]; overall): 11.1 ng/mL | Mean levels of 7αC4, increase from baseline ([1]; overall): 130% | sBA levels, decrease from baseline ([1]; overall): 38% | sBA levels, mean change from baseline ([1]; overall): -14.8 µmol/L | Mean conjugated bilirubin levels, increase ([1]; overall population): 0.19 mg/dL | serum LCL-C concentration, change ([1]; overall population): -16.3 mg/dL | serum autotaxin concentration, change ([1]; overall population): -148 ng/mL | total cholesterol, mean change ([1]; overall population): -21.2 mg/dL | ITCHRO weekly sum scores, decrease from baseline ([1]; overall, baseline to week 14/ET): 51% | Changes in serum total bilirubin, alanine aminotransferase, aspartate aminotransferase, and alkaline phosphatase concentrations ([1]; participants in the CAMEO clinical study): not statistically significant | conjugated bilirubin levels, change ([1]; participants with ITCHRO daily score ≥0 at baseline): no significant change | ItchRO average daily score (0-10 scale), Change from baseline to week 14/ET [1, 4]: −4.7 and −4.6 and −1.7 and −3.7 (2×) and −9.1 | ItchRO average daily score (0-10 scale), Week 14/ET [1, 4]: 0 (2×) and 1.3 and 5.1 and 3.1 and 2.3 | autotaxin levels ([1]; participants with an ITCHRO daily score >4 at baseline): significant reductions | ITCHRO weekly sum scores, decrease from baseline ([1]; participants with an ITCHRO daily score >4 out of 10 at baseline (n=6)): 70% | Mean levels of 7αC4, increase from baseline [1, 5]: 107% | sBA levels, decrease from baseline [1, 5]: 45% | total cholesterol, mean change [1, 5]: -32.0 mg/dL | participants in whom pruritus improved ([1]; participants with an ITCHRO score ≥4 at baseline): all 6 | ITCHRO weekly sum scores, decrease from baseline ([1]; participants with any pruritus at baseline (n=18)): 53% | fBA excretion, mean change from baseline ([2]; 10 mg dose, 7 days): 515 µmol | fBA excretion, mean change from baseline ([2]; 20 mg dose, 7 days): 532 µmol | fBA excretion, mean change from baseline ([2]; 50 mg BID, 7 days): 1251 µmol | fBA excretion, mean change from baseline ([2]; 100 mg QD, 7 days): 1144 µmol | Mean sBA levels ([2]; 7 days): not elevated | fBA excretion ([2]; across doses): increased in a dose-dependent manner | treatment-emergent adverse events occurring in over 10% of participants ([2]; all doses): headache and diarrhea | treatment-emergent adverse events, severity ([2]; all doses): mild, and none were serious | Mean serum 7αC4 ([2]; baseline to day 7): increased | multi-parameter response ([3]; all PFIC 1 patients and all patients harboring a truncating ABCB11 mutation): not multi-parameter responders | serum ALT, AST, and bilirubin concentrations over time ([3]; all low-dose responders, e.g. within 2-6 months of first administration): normalized or only mildly elevated concentrations | increase in C4 levels relative to baseline ([3]; all low-dose responders, within 13 weeks of first administration): at least 2.5 fold | height Z-score ([3]; high dose responder, following treatment response on sBA): increase in height Z-score | 7αC4:sBA ratio ([3]; prior to administration of 560 μg/kg/day): 12 times baseline | 7αC4:sBA ratio ([3]; upon administration of the higher dose (560 μg/kg/day)): 1770 times baseline | cholestasis markers after administration of the higher dose ([3]; low-dose responder losing response in long-term extension, 280 μg/kg BID from between 640 and 730 days): sBA concentration decreased, severity of pruritus decreased, serum 7αC4 concentration increased, and 7αC4:sBA ratio increased | pruritus after administration of the higher dose ([3]; low-dose responder with sBA increase in long-term extension, 280 μg/kg BID from between 820 and 910 days): severity of pruritus subsequently decreased | 7αC4 concentrations at 48 weeks ([3]; low-dose responders): 14 × baseline | growth (height Z-score change relative to baseline) ([3]; low-dose responders): improved growth relative to baseline | mean change from baseline at week 48 in 7αC4:sBA ratio ([3]; low-dose responders): 1388 times baseline ratio | multi-parameter responder ([3]; mild PFIC 2 patients, 280 μg/kg QD): 1 of 7 | responders ([3]; moderate PFIC 2 patients, 280 μg/kg/day by week 48): 5 of 12 | high-dose responder ([3]; moderate PFIC 2 patients, responsive only after 280 μg/kg twice daily): 1 of 12 | 7αC4 concentrations at 48 weeks ([3]; non-responders): 1.8 × baseline | growth (height Z-score change relative to baseline) ([3]; non-responders): did not | mean change from baseline at week 48 in 7αC4:sBA ratio ([3]; non-responders): 1.9 times baseline ratio | patients with ≥1.0 pt. reduction in ITCHRO(OBS) score ([3]; non-truncating BSEP mutations): 10/19 | duration of maintained response ([3]; responders): for over a year and for up to or beyond 5 years | ItchRO score, n: Improved by ≥1.0 points from baseline ([3]; responders (n = 6) by week 48): 4 | ItchRO score, n: Zero (no pruritus) ([3]; responders (n = 6) by week 48): 2 | sBA levels, n: Normalized (±≤8.5 μmol/L) ([3]; responders (n = 6) by week 48): 4 | sBA levels, n: Reduced by ≥70% or ≥80% from baseline ([3]; responders (n = 6) by week 48): 2 | patients responding at the higher dose ([3]; three non-truncating PFIC 2 patients without response at 280 μg/kg/day given 560 μg/kg/day): one | ALT, change from baseline to week 48, mean ([3]; week 48): −12 UI/L | C4, change from baseline to week 48, mean ([3]; week 48): +6.0 ng/mL | ItchRO(Obs) score, change from baseline to week 48, mean ([3]; week 48): −1.0 | PedsQL total score, change from baseline to week 48, mean ([3]; week 48): +8.2
